Values joined by “and” are separate entries in the source; they are usually repeats but may differ in a detail not shown here. Equal values may be shown once.
System: 874868-142-R-J2-PDC complex spheroids, growth % test/control
Experiment: Anticancer human tumor 874868-142-R-J2-PDC patient-derived head and neck squamous carcinoma cell line growth inhibition [CLK]
Settings: for viability, T/C: stronger effect = lower value
In short: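 Multi-cell-type spheroids combined patient-derived tumor cells with HUVEC endothelial cells and human mesenchymal stem cells. Paired agents were dosed in half-log steps down from about clinical Cmax, or from 10 microM where Cmax was unknown.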

[1] = curve of first compound, second compound 0.0316 µM
[2] = curve of first compound, second compound 0.1 µM
[3] = curve of first compound, second compound 0.316 µM
[4] = curve of first compound, second compound 1 µM
[5] = curve of first compound, second compound 3.16 µM
[6] = curve of first compound, second compound 10 µM
[7] = second compound 0.0316 µM, first compound 0.0316 µM
[8] = second compound 0.0316 µM, first compound 0.1 µM
[9] = second compound 0.0316 µM, first compound 0.316 µM
[10] = second compound 0.0316 µM, first compound 1 µM
[11] = second compound 0.0316 µM, first compound 3.16 µM
[12] = second compound 0.0316 µM, first compound 10 µM
[13] = second compound 0.1 µM, first compound 0.0316 µM
[14] = second compound 0.1 µM, first compound 0.1 µM
[15] = second compound 0.1 µM, first compound 0.316 µM
[16] = second compound 0.1 µM, first compound 1 µM
[17] = second compound 0.1 µM, first compound 3.16 µM
[18] = second compound 0.1 µM, first compound 10 µM
[19] = second compound 0.316 µM, first compound 0.0316 µM
[20] = second compound 0.316 µM, first compound 0.1 µM
[21] = second compound 0.316 µM, first compound 0.316 µM
[22] = second compound 0.316 µM, first compound 1 µM
[23] = second compound 0.316 µM, first compound 3.16 µM
[24] = second compound 0.316 µM, first compound 10 µM
[25] = second compound 1 µM, first compound 0.0316 µM
[26] = second compound 1 µM, first compound 0.1 µM
[27] = second compound 1 µM, first compound 0.316 µM
[28] = second compound 1 µM, first compound 1 µM
[29] = second compound 1 µM, first compound 3.16 µM
[30] = second compound 1 µM, first compound 10 µM
[31] = second compound 3.16 µM, first compound 0.0316 µM
[32] = second compound 3.16 µM, first compound 0.1 µM
[33] = second compound 3.16 µM, first compound 0.316 µM
[34] = second compound 3.16 µM, first compound 1 µM
[35] = second compound 3.16 µM, first compound 3.16 µM
[36] = second compound 3.16 µM, first compound 10 µM
[37] = second compound 10 µM, first compound 0.0316 µM
[38] = second compound 10 µM, first compound 0.1 µM
[39] = second compound 10 µM, first compound 0.316 µM
[40] = second compound 10 µM, first compound 1 µM
[41] = second compound 10 µM, first compound 3.16 µM
[42] = second compound 10 µM, first compound 10 µM
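Further: spheroids exposed to the compounds for 7 days.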
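Wherever viability, T/C is given: 100% = DMSO vehicle control viability.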

Nc1ccccc1NC(=O)c1ccc(CNC(=O)OCc2cccnc2)cc1 + CNC(=O)c1ccc(Nc2nc(OC3CCCC3)c3c(-c4ccc5nc(C)oc5c4)c[nH]c3n2)c(OC)c1
IC50 [1]: 7270 nM
IC50 [2]: 7260 nM
IC50 [3]: 4800 nM
IC50 [4]: 252 nM
IC50 [5]: 3950 nM
IC50 [6]: 3440 nM
viability, T/C [7]: 107%
viability, T/C [8]: 87.5%
viability, T/C [9]: 110%
viability, T/C [10]: 114%
viability, T/C [11]: 109%
viability, T/C [12]: 28.7%
viability, T/C [13]: 82.6%
viability, T/C [14]: 73.7%
viability, T/C [15]: 94.4%
viability, T/C [16]: 109%
viability, T/C [17]: 101%
viability, T/C [18]: 33.6%
viability, T/C [19]: 61.5%
viability, T/C [20]: 61.4%
viability, T/C [21]: 67.8%
viability, T/C [22]: 79.9%
viability, T/C [23]: 88.9%
viability, T/C [24]: 11.3%
viability, T/C [25]: 42.4%
viability, T/C [26]: 45%
viability, T/C [27]: 52.1%
viability, T/C [28]: 66.9%
viability, T/C [29]: 76.6%
viability, T/C [30]: 11.9%
viability, T/C [31]: 49.2%
viability, T/C [32]: 47%
viability, T/C [33]: 56.9%
viability, T/C [34]: 71.8%
viability, T/C [35]: 72.1%
viability, T/C [36]: 10.8%
viability, T/C [37]: 41.8%
viability, T/C [38]: 44%
viability, T/C [39]: 49%
viability, T/C [40]: 67.3%
viability, T/C [41]: 69.2%
viability, T/C [42]: 3.57%

COc1c(OCCCN2CCOCC2)ccc2c3n(c(=NC(=O)c4cnc(N)nc4)nc12)CCN3
viability, T/C (compound 0.00316 µM): 67%
viability, T/C (compound 0.01 µM): 48.4%
viability, T/C (compound 0.0316 µM): 22.6%
viability, T/C (compound 0.1 µM): 10.7%
viability, T/C (compound 0.316 µM): 5.08%
viability, T/C (compound 1 µM): 3.71%
IC50 (curve of compound): 8.88 nM

CCN1CCN(Cc2ccc(Nc3ncc(F)c(-c4cc(F)c5nc(C)n(C(C)C)c5c4)n3)nc2)CC1 + CNC(=O)c1ccc(Nc2nc(OC3CCCC3)c3c(-c4ccc5nc(C)oc5c4)c[nH]c3n2)c(OC)c1
IC50 [1]: > 1000 nM
IC50 [2]: > 1000 nM
IC50 [3]: > 1000 nM
IC50 [4]: < 3.16 nM
IC50 [5]: < 3.16 nM
IC50 [6]: < 3.16 nM
viability, T/C (second compound 0.0316 µM, first compound 0.00316 µM): 96.9%
viability, T/C (second compound 0.0316 µM, first compound 0.01 µM): 103%
viability, T/C [7]: 95.2%
viability, T/C [8]: 100%
viability, T/C [9]: 121%
viability, T/C [10]: 113%
viability, T/C (second compound 0.1 µM, first compound 0.00316 µM): 106%
viability, T/C (second compound 0.1 µM, first compound 0.01 µM): 91.8%
viability, T/C [13]: 94.5%
viability, T/C [14]: 81.6%
viability, T/C [15]: 109%
viability, T/C [16]: 113%
viability, T/C (second compound 0.316 µM, first compound 0.00316 µM): 59.4%
viability, T/C (second compound 0.316 µM, first compound 0.01 µM): 62.7%
viability, T/C [19]: 56.2%
viability, T/C [20]: 64.6%
viability, T/C [21]: 84.8%
viability, T/C [22]: 99.9%
viability, T/C (second compound 1 µM, first compound 0.00316 µM): 46.2%
viability, T/C (second compound 1 µM, first compound 0.01 µM): 44.8%
viability, T/C [25]: 44.4%
viability, T/C [26]: 49.3%
viability, T/C [27]: 67.9%
viability, T/C [28]: 68.7%
viability, T/C (second compound 3.16 µM, first compound 0.00316 µM): 41.9%
viability, T/C (second compound 3.16 µM, first compound 0.01 µM): 50.8%
viability, T/C [31]: 41.5%
viability, T/C [32]: 38.5%
viability, T/C [33]: 50.8%
viability, T/C [34]: 72.5%
viability, T/C (second compound 10 µM, first compound 0.00316 µM): 46.2%
viability, T/C (second compound 10 µM, first compound 0.01 µM): 40.5%
viability, T/C [37]: 56%
viability, T/C [38]: 45.6%
viability, T/C [39]: 66.8%
viability, T/C [40]: 71.2%

O=c1[nH]cc(F)c(=O)[nH]1 + CNC(=O)c1ccc(Nc2nc(OC3CCCC3)c3c(-c4ccc5nc(C)oc5c4)c[nH]c3n2)c(OC)c1
IC50 [1]: > 10000 nM
IC50 [2]: 2010 nM
IC50 [3]: 461 nM
IC50 [4]: < 31.6 nM
IC50 [5]: < 31.6 nM
IC50 [6]: < 31.6 nM
viability, T/C [7]: 81.8%
viability, T/C [8]: 86%
viability, T/C [9]: 71.7%
viability, T/C [10]: 61.1%
viability, T/C [11]: 54.7%
viability, T/C [12]: 50.7%
viability, T/C [13]: 74%
viability, T/C [14]: 68.9%
viability, T/C [15]: 75.8%
viability, T/C [16]: 56.4%
viability, T/C [17]: 50.2%
viability, T/C [18]: 41.5%
viability, T/C [19]: 54%
viability, T/C [20]: 59.2%
viability, T/C [21]: 55.9%
viability, T/C [22]: 34.9%
viability, T/C [23]: 39.4%
viability, T/C [24]: 39.2%
viability, T/C [25]: 43.5%
viability, T/C [26]: 48.6%
viability, T/C [27]: 40.1%
viability, T/C [28]: 29.4%
viability, T/C [29]: 30.1%
viability, T/C [30]: 26%
viability, T/C [31]: 34.9%
viability, T/C [32]: 39.7%
viability, T/C [33]: 29%
viability, T/C [34]: 28.4%
viability, T/C [35]: 28.7%
viability, T/C [36]: 31.9%
viability, T/C [37]: 40.2%
viability, T/C [38]: 46%
viability, T/C [39]: 35.9%
viability, T/C [40]: 23.4%
viability, T/C [41]: 30.8%
viability, T/C [42]: 23.2%

Nc1ccn(C2OC(CO)C(O)C2(F)F)c(=O)n1 (centres undefined) + CNC(=O)c1ccc(Nc2nc(OC3CCCC3)c3c(-c4ccc5nc(C)oc5c4)c[nH]c3n2)c(OC)c1
IC50 [1]: 646 nM
IC50 [2]: 518 nM
IC50 [3]: 162 nM
IC50 [4]: < 31.6 nM
IC50 [5]: < 31.6 nM
IC50 [6]: < 31.6 nM
viability, T/C [7]: 108%
viability, T/C [8]: 80.2%
viability, T/C [9]: 56.3%
viability, T/C [10]: 46.7%
viability, T/C [11]: 41.6%
viability, T/C [12]: 43.5%
viability, T/C [13]: 80.6%
viability, T/C [14]: 97.9%
viability, T/C [15]: 57.8%
viability, T/C [16]: 42.3%
viability, T/C [17]: 42.9%
viability, T/C [18]: 33.8%
viability, T/C [19]: 56.4%
viability, T/C [20]: 53.7%
viability, T/C [21]: 48%
viability, T/C [22]: 35.3%
viability, T/C [23]: 35%
viability, T/C [24]: 22.3%
viability, T/C [25]: 42.9%
viability, T/C [26]: 37.5%
viability, T/C [27]: 33.6%
viability, T/C [28]: 23.1%
viability, T/C [29]: 26.2%
viability, T/C [30]: 18%
viability, T/C [31]: 40%
viability, T/C [32]: 42.1%
viability, T/C [33]: 30.3%
viability, T/C [34]: 23.8%
viability, T/C [35]: 22.7%
viability, T/C [36]: 16.5%
viability, T/C [37]: 39.2%
viability, T/C [38]: 36.8%
viability, T/C [39]: 33.7%
viability, T/C [40]: 25.5%
viability, T/C [41]: 19.4%
viability, T/C [42]: 23.1%

CC(CO)NC(=O)c1cc(-c2ccc(Cl)cc2)nn(-c2cnn(C)c2)c1=O (centres undefined) + CNC(=O)c1ccc(Nc2nc(OC3CCCC3)c3c(-c4ccc5nc(C)oc5c4)c[nH]c3n2)c(OC)c1
IC50 [1]: > 10000 nM
IC50 [2]: > 10000 nM
IC50 [3]: > 10000 nM
IC50 [4]: < 31.6 nM
IC50 [5]: < 31.6 nM
IC50 [6]: < 31.6 nM
viability, T/C [7]: 98%
viability, T/C [8]: 90.1%
viability, T/C [9]: 90.2%
viability, T/C [10]: 120%
viability, T/C [11]: 125%
viability, T/C [12]: 104%
viability, T/C [13]: 82.2%
viability, T/C [14]: 90%
viability, T/C [15]: 82.6%
viability, T/C [16]: 85.9%
viability, T/C [17]: 94.8%
viability, T/C [18]: 109%
viability, T/C [19]: 50.6%
viability, T/C [20]: 51.4%
viability, T/C [21]: 56.2%
viability, T/C [22]: 48.5%
viability, T/C [23]: 58.5%
viability, T/C [24]: 67.4%
viability, T/C [25]: 52.4%
viability, T/C [26]: 38.1%
viability, T/C [27]: 34.9%
viability, T/C [28]: 43.1%
viability, T/C [29]: 50.8%
viability, T/C [30]: 50.7%
viability, T/C [31]: 40.3%
viability, T/C [32]: 36.8%
viability, T/C [33]: 44.3%
viability, T/C [34]: 41.2%
viability, T/C [35]: 52.4%
viability, T/C [36]: 44.4%
viability, T/C [37]: 34.7%
viability, T/C [38]: 36.4%
viability, T/C [39]: 36.1%
viability, T/C [40]: 33.7%
viability, T/C [41]: 50.9%
viability, T/C [42]: 42.2%

COc1cccc2c1C(=O)c1c(O)c3c(c(O)c1C2=O)CC(O)(C(=O)CO)CC3OC1CC(N)C(O)C(C)O1 (centres undefined)
viability, T/C (compound 0.0316 µM): 74.8% and 74.3%
viability, T/C (compound 0.1 µM): 46.2% and 52.2%
viability, T/C (compound 0.316 µM): 18.9% and 27.4%
viability, T/C (compound 1 µM): 3.91% and 6.75%
viability, T/C (compound 3.16 µM): 0.09% and 0.19%
viability, T/C (compound 10 µM): 0.19% and 0.2%
IC50 (curve of compound): 86.8 nM and 114 nM
